Earlier results in patent publication US8263648B2, “Diebenzofuran derivatives as inhibitors of PDE-4 and PDE-10” (Mylan Laboratories Ltd., priority 2006, dated 2012).

Legend:
[1] = oral dosages of up to 100 mg/kg
PDE10A1 = PDE10A1 (Homo sapiens, UniProt Q9Y233); conditions: substrate of PDE10A1, a splice variant of PDE10
Chain of PDE10A1 (Q9Y233 1-779 isoform Q9Y233-1): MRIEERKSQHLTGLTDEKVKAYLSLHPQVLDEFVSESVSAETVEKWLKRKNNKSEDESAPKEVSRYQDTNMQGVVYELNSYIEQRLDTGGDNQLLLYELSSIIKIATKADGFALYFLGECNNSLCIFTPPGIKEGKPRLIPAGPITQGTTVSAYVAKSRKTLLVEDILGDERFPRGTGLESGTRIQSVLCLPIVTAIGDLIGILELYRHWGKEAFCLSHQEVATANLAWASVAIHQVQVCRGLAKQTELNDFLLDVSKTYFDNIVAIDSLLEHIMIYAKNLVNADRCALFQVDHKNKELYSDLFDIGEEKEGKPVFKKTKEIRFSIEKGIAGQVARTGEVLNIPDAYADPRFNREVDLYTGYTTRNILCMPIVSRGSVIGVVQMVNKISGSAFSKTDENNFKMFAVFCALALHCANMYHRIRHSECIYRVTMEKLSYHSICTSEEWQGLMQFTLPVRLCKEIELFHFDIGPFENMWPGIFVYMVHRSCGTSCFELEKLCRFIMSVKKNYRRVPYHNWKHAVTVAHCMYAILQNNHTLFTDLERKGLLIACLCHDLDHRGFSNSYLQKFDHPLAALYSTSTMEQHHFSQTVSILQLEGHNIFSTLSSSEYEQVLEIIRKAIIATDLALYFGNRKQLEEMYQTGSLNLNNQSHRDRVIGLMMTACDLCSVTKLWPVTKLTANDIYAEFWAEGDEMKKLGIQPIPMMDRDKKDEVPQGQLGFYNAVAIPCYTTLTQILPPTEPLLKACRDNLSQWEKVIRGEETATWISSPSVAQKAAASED

Row | SMILES | emetic effect [1] | Km (PDE10A1) [µM]
1 | CS(=O)(=O)Nc1ccc2oc3c(OC(F)F)ccc(C(=O)Nc4c(Cl)cncc4Cl)c3c2c1 [GRC3886] | no emetic effect | 
2 | Nc1nc2c(ncn2[C@@H]2O[C@@H]3COP(=O)(O)O[C@H]3[C@H]2O)c(=O)[nH]1 [cGMP] |  | 3
